US8324390B2, “Tetrazole-substituted anthranilamides as pesticides” (Bayer CropScience AG, priority 2008, dated 2012)
Where two headings read alike, the source gives them in different places.

Columns and labels:
[1] = tested on: caterpillars of the armyworm (Spodoptera frugiperda); experiment: Spodoptera frugiperda test (SPODFR spray treatment); assay type: in vivo; conditions: Spodoptera frugiperda, foliar, read-out: effect in % (caterpillars killed)
Description: (§1) Solvent: 78.0 parts by weight of acetone

[2] = tested on: larvae of the mustard beetle (Phaedon cochleariae); experiment: Phaedon test (PHAECO spray treatment); conditions: Phaedon cochleariae, in Brassica rapa, foliar, read-out: effect in % (beetle larvae killed)
[3] = log P determination by HPLC (EEC Directive 79/831 Annex V.A8); assay type: physicochemical
Method: The measurements were carried out using an Agilent 1100 LC system with a 50*4.6 Zorbax Eclipse C18 1.8 μm column (oven temperature 55° C., flow rate 2.0 ml/min).
The following mobile phases were used:
Mobile phase A: acetonitrile+1000 μl of formic acid/l
Mobile phase B: Millipore water+900 μl of formic acid/l

[4] = tested on: green peach aphid (Myzus persicae); experiment: Myzus test (MYZUPE spray treatment); assay type: in vivo; conditions: Myzus persicae, foliar, read-out: effect in % (aphids killed)
Description: Solvent: 78 parts by weight of acetone
as §1

[5] = application rate 100 g/ha, maize leaf discs
[6] = reversed-phase HPLC, Zorbax Eclipse C18 column, determined by HPLC according to EEC Directive 79/831 Annex V.A8, read-out: log P
[7] = application rate 100 g/ha, Chinese cabbage leaf discs
[8] = reversed-phase HPLC, Zorbax Eclipse C18 column, by HPLC according to EEC Directive 79/831 Annex V.A8, read-out: log P

| Compound | pest or weed control at 100 g/ha ([1]; in Zea mays) | pest or weed control at 100 g/ha [2] | chromatographic logP ([3]; log P) | pest or weed control at 100 g/ha ([4]; in Brassica rapa) | pest or weed control at 100 g/ha [1, 5] | chromatographic logP [3, 6] | pest or weed control at 100 g/ha [4, 7] | chromatographic logP [3, 8] |
| --- | --- | --- | --- | --- | --- | --- | --- | --- |
| CSC[C@H](C)NC(=O)c1cc(Cl)cc(Cl)c1NC(=O)c1cc(Cn2nnc(C(F)(F)C(F)(F)F)n2)nn1-c1ncccc1Cl [Example 154] | ≥ 80% | ≥ 80% | 4.02 | ≥ 80% |  |  |  |  |
| Cc1cc(Cl)cc(C(N)=O)c1NC(=O)c1cc(Cn2nnnc2C(F)(F)F)nn1-c1ncccc1Br [Example 481] |  | ≥ 80% |  |  | ≥ 80% | 2.43 | ≥ 80% |  |
| Cc1cc(I)cc(C(=O)NC(C)(C)C)c1NC(=O)c1cc(Cn2nnc(C(F)(F)F)n2)nn1-c1ncccc1C(F)(F)F [Example 242] |  | ≥ 80% |  |  | ≥ 80% |  | ≥ 80% | 4.25 |
| Cc1cc(C#N)cc(C(=O)NC(C)(C)C)c1NC(=O)c1cc(Cn2nnc(C(F)(F)F)n2)nn1-c1ncccc1F [Example 407] |  | ≥ 80% |  |  | ≥ 80% | 3.2 | ≥ 80% |  |
| Cc1cc(C#N)cc(C(=O)NC(C)C2CC2)c1NC(=O)c1cc(Cn2nnc(C(F)(F)C(F)(F)F)n2)nn1-c1ncccc1Cl (centres unmarked) [Example 134] | ≥ 80% | ≥ 80% | 3.84 | ≥ 80% |  |  |  |  |
| CCNC(=O)c1cc(C#N)cc(C)c1NC(=O)c1cc(Cn2nnc(C(F)F)n2)nn1-c1ncccc1Cl [Example 265] | ≥ 80% | ≥ 80% | 2.36 | ≥ 80% |  |  |  |  |
| Cc1cc(C#N)cc(C(=O)NCc2ccco2)c1NC(=O)c1cc(Cn2nnc(C(F)(F)F)n2)nn1-c1ncccc1Cl [Example 77] | ≥ 80% | ≥ 80% | 3.14 | ≥ 80% |  |  |  |  |
| Cc1cc(C#N)cc(C(=O)NC(C)C)c1NC(=O)c1cc(Cn2nnc(C(F)(F)C(F)(F)F)n2)nn1-c1ncccc1Br [Example 423] |  | ≥ 80% |  |  | ≥ 80% | 3.46 | ≥ 80% |  |
| Cc1cc(C#N)cc(C(=O)NC(C)C)c1NC(=O)c1cc(Cn2nnnc2C(F)F)nn1-c1ncccc1Cl [Example 463] | ≥ 80% | ≥ 80% | 2.36 | ≥ 80% |  |  |  |  |
| NC(=O)c1cc(Cl)cc(Cl)c1NC(=O)c1cc(Cn2nnc(C(F)(F)F)n2)nn1-c1ncccc1Cl [Example 55] | ≥ 80% | ≥ 80% | 2.72 | ≥ 80% |  |  |  |  |
| Cc1cc(C#N)cc(C(=O)NC2CC2)c1NC(=O)c1cc(Cn2nnnc2C(F)(F)F)nn1-c1ccccc1Cl [Example 525] |  | ≥ 80% |  |  | ≥ 80% | 2.95 | ≥ 80% |  |
| Cc1cc(C#N)cc(C(=O)NC(C)(C)C)c1NC(=O)c1cc(Cn2nnnc2C(F)F)nn1-c1ncccc1Cl [Example 464] | ≥ 80% | ≥ 80% | 2.59 | ≥ 80% |  |  |  |  |
| Cc1cc(Cl)cc(C(N)=O)c1NC(=O)c1cc(Cn2nnc(C(F)(C(F)(F)F)C(F)(F)F)n2)nn1-c1ncccc1Cl [Example 360] | ≥ 80% | ≥ 80% | 3.46 | ≥ 80% |  |  |  |  |
| Cc1cc(C#N)cc(C(=O)NC(C)(C)C)c1NC(=O)c1cc(Cn2nnc(C(F)(F)F)n2)nn1-c1c(F)cccc1Cl [Example 528] |  | ≥ 80% |  |  | ≥ 80% | 3.88 | ≥ 80% |  |
| Cc1cc(C#N)cc(C(=O)NC(C)(C)C)c1NC(=O)c1cc(Cn2nnc(C(F)(F)F)n2)nn1-c1ncccc1Br [Example 332] |  | ≥ 80% |  |  | ≥ 80% |  | ≥ 80% | 3.43 |
| Cc1cc(F)cc(C(=O)NC(C)(C)C)c1NC(=O)c1cc(Cn2nnc(C(F)F)n2)nn1-c1ncccc1Cl [Example 308] | ≥ 80% | ≥ 80% | 2.9 | ≥ 80% |  |  |  |  |
| NC(=O)c1cc(Cl)cc(Cl)c1NC(=O)c1cc(Cn2nnc(C(F)F)n2)nn1-c1ncccc1Cl [Example 305] | ≥ 80% | ≥ 80% | 2.31 | ≥ 80% |  |  |  |  |
